Source: patent US11400160B2, “Multifunctional conjugates” (E.P.O.S IASIS Research and Development Limited, priority 2017, dated 2022)
Like-named read-outs stand apart in the source and are kept apart here.

Key:
[1] = system: MDA-MB231 cells; assay: Cell viability, crystal violet colorimetric assay; type: cell-based; details: 72 hrs; for IC50: tested at 0.02-0.1 mM; for EC50: * denotes EC50 value, read-out: EC50 value (starred) MB231
Protocol: (§1) Immortalised osteolytic metastatic breast cancer cell lines, a) hormone-dependent MCF-7 and b) hormone refractory MDA-MB231, together with the daughter line MDA-MB231TXSA were incubated with 5 gradual concentrations of compounds of the invention as described below. Cell viability was assessed with the crystal violet colorimetric assay and IC50s were evaluated.
(§2) Medium was removed from cell cultures and cells were fixed with 4% v/v formaldehyde for 5 mins at room temperature. Formalin was then removed and CV added for 10 mins at room temperature followed by several washes with dsH2O. Samples were allowed to dry overnight. The following day, 10% acetic acid was added for 15 mins and optical density at 620 nm was measured. Optical densities versus compound concentrations were plotted in graphs and IC50s estimated by linear regression analysis using the WorkOut (VictorX4) software.
(§3) MCF-7, MDA-MB231 and MDA-MB231TXSA cells were seeded in 96-well-plates and allowed to attach overnight. The following day media were replaced with fresh media containing the following compounds: Both free tetraethyl methylbisphosphonate (bpp(OEt)) and bpp(OEt) in 1:1 combination with the free chromanol and the biphosphonate conjugates were tested at 5 gradual concentrations of: 0.02, 0.04, 0.06, 0.08 and 0.1 mM.
(§4) Cells were cultured in the presence of the compounds for 72 hrs and viability was assessed on day 3 by crystal violet assay. The cell lines were selected for their high bone metastatic potential. The fluorescently transfected line MB231TXSA, derived from line MB231 is also used in animal studies (WP7).

[2] = system: MDA-MB231TXSA cells; assay: Cell viability, crystal violet colorimetric assay; type: cell-based; details: 72 hrs; for IC50: tested at 0.02-0.1 mM, read-out: IC50 values MB231-TXSA
Protocol: as §1, §2, §3, §4

[3] = system: MCF-7 cells; assay: Cell viability, crystal violet colorimetric assay; type: cell-based; details: 72 hrs; for IC50: tested at 0.02-0.1 mM, unstarred values; for EC50: * denotes EC50 value, read-out: EC50 value (starred) MCF-7
Protocol: as §1, §2
MCF-7, MDA-MB231 and MDA-MB231TXSA cells were seeded in 96-well-plates and allowed to attach overnight. […]
as §4

[4] = system: metastatic breast cancer cell lines (MCF-7, MDA-MB231, MDA-MB231TXSA); assay: Cell viability / antiproliferative activity, breast cancer lines; type: cell-based; details: for antiproliferative activity compared with bpp(OEt): esterified compounds and 1:1 mixtures; for effect on cell viability: viability assays and IC50s, 72 hrs
Protocol: as §1, §2, §3, §4

[5] = system: breast and prostate cancer metastatic cell lines; assay: Dose response of cell viability of breast and prostate cancer cells (FIG. 1); type: cell-based
[6] = system: RAW264.7 cells; assay: In vitro osteoclastogenesis of RAW264.7 (TRAP staining); type: cell-based, murine; details: RANKL-differentiated; γ-tocopherol at 1 μg/ml and 201 μg/ml; bpp(OEt) at increasing concentrations; FIG. 4
Protocol: (§5) Human peripheral blood mononuclear cells (PBMCs) and the RAW264.7 murine monocytic cell line were differentiated into osteoclast-like cells in the presence of RANKL plus M-CSF and have been used as model systems of osteoclastogenesis. Osteoclast-like cells, from Giant Cell Tumours (GCT) of bone specimens from three independent donors were used to investigate the effect of compounds of the invention on the bone resorbing activity of mature osteoclasts.
(§6) Cells were cultured in 96-well plates at a density of 1×10^4 cells/well in DMEM medium with 10% FCS, L-glutamine (2 mM) and Hepes (20 mM). Cells were allowed to attach for 4 hrs before treatment with RANKL (50 ng/ml) in the presence or absence of increasing concentrations of compounds of the invention as above. Medium and treatments were replaced on day three and TRAP activity determined on day 5. The overall number of viable cells were determined by crystal violet staining.
Osteoclast cultures established by the differentiation of RAW264.7 cells in wells were fixed and stained for tartrate resistant acid phosphatase (TRAP) as recommended by the manufacturer on days 4 and 5. TRAP positive cells were visualised by light microscopy and images taken with a digital camera.

[7] = system: osteoclasts from RAW264.7 and Human PBMC; assay: Resorption on pre-loaded whale dentine / osteologic slides (pit formation); type: cell-based, murine
Source text: Zoledronic acid was used as control.
as §5
Human PBMCs were isolated from normal healthy donors isolated from the buffy coats acquired from the local Red Cross Blood Service. The cells were diluted in Hanks Balanced Salt Solution (HBSS) and separated by gradient centrifugation with Lymphoprep™. Isolated cells were resuspended in α MOD, 10% FCS, L-glutamine (2 mM), Hepes (20 mM), supplemented with M-CSF (25 ng/ml), 1α,25(OH)2 vitamin D3 (10 nM) and dexamethasone (10 nM) and plated into 96-well plates containing whale dentine slices, for the bone resorption assay or directly into wells for TRAP staining. The following day, media were removed and replaced with media as above, supplemented with RANKL (100 ng/ml) in the presence or absence of increasing concentrations of compounds of the invention. Medium and treatments were replaced every three days.
as §6
Whale dentine slices will be washed in extran, rinsed with distilled water, washed in 70% ethanol and dried overnight. The dentine slices mounted on stubs, carbon-coated and visualised on a Philips XL-20 scanning electron microscope, (SEM) as previously described. Images will be analysed using ImageQuant software and the area of resorption determined for each dentine slice (quadruplicate dentine slices for each treatment). Results are expected to be average resorption area +/− standard errors of the mean (SEM) and the significant differences between treatments will be determined using Students t-tests (2-tailed, unpaired).
(§7) In a separate experiment, pre-loaded bone slices (whale dentine) or commercial forms of hydroxyapatite (osteologic slides) with either free γ-tocopherol (γToc) or γ-tocopherol-bpp(OEt) (BP-γToc) and then washed away unbound drug.

[8] = Binding to pre-loaded bone slices / hydroxyapatite after washing; details: pre-loaded whale dentine or osteologic slides, unbound drug washed away
Source text: as §7

[9] = system: metastatic breast cancer lines; assay: DAPI staining of apoptotic nuclei; type: cell-based; details: cells treated with IC50 concentrations
Protocol: Compounds with statistically significant decrease in viability were further examined to determine whether their effect was due to induced apoptosis based on morphologic criteria in DAPI-stained cells. […] Pro-apoptotic efficacies were compared using two-way analysis of Variance (ANOVA) followed by Bonferroni post-tests.
Growth medium was removed and cells were fixed with 4% v/v formaldehyde in PBS for 5 mins at room temperature. Fixed cells were washed once with PBS and incubated with 1 μg/ml DAPI in PBS for 20 mins at 37° C. Rinsed with PBS and mounted in mounting medium. Coverslips were sealed on glass slides and examined for the presence of apoptotic cells by fluorescence microscopy (see FIG. 2).

[10] = system: Caspase-3 activity in MB231 breast cancer cell-line; assay: Caspase-3 enzymatic activity assay; type: cell-based; details: IC50 concentrations, two-way ANOVA with Bonferroni post-tests
Protocol: Cells were grown in 12 well-plates in the presence of IC50 concentrations of compounds of the invention or culture medium with 0.1% v/v ethanol as control and were washed with PBS and incubated with lysis buffer for 15 mins at 4° C. Lysates were centrifuged at 15000 g. 20 μl of each lysate suspension was incubated with 100 μl of protease buffer containing 10 μM of fluorescent substrate zDEVD-AFC (3 samples/lysate) for 4 hrs at room temperature. Caspase-3 enzymatic activity was measured every 1 hr by fluorescence with excitation at 405 nm and emission at 515/30 nm.
Fluorescence measurements were plotted in graphs against time and were statistically analysed by two-way ANOVA followed by Bonferroni post-tests to identify statistically significant apoptotic activities of compounds of the invention (see FIG. 3).

| IC50 ([2]; Exp.3) [µM] | IC50 ([2]; Exp.4) [µM] | EC50 ([3]; Exp.3) [µM] | IC50 ([1]; Exp.3, unstarred values) [µM] | IC50 ([3]; Exp.4) [µM] | IC50 ([1]; Exp.4, unstarred values) [µM] | Compound | IC50 ([1]; Exp.1, unstarred values) [µM] | IC50 ([1]; Exp.2) [µM] | EC50 ([1]; Exp.4) [µM] | IC50 ([2]; Exp.1) [µM] | cell viability on breast and prostate cancer metastatic cell lines [5] | antiproliferative activity compared with bpp(OEt) [4] | effect on cell viability [4] | further results |
| --- | --- | --- | --- | --- | --- | --- | --- | --- | --- | --- | --- | --- | --- | --- |
| 137 | 88.7 | – | 103 | 54.5 | – | Cc1c(C)c2c(c(C)c1O)CC[C@@](C)(CCC[C@H](C)CCC[C@H](C)CCCC(C)C)O2 [α-toc, α-tocopherol, reference compound] | – | – | 131 | – | – | – | – | IC50 ([3]; Exp.3): 54.7 µM |
| 98.1 | 73 | 152 | 128 | 76.8 | 281 | CCOP(=O)(OCC)C(CCC(=O)Oc1c(C)c(C)c2c(c1C)CCC(C)(CCCC(C)CCCC(C)CCCC(C)C)O2)P(=O)(OCC)OCC (stereo not drawn) [α-toc-bpp(OEt), α-Tocopheryl Bisphosphonic Ester] | – | – | – | – | – | increased | reduced cell viability | – |
| – | – | – | – | – | – | CC(C)=CCC/C(C)=C/CC/C(C)=C/CC[C@]1(C)CCc2cc(O)c(C)c(C)c2O1 [γ-Tocotrienol] | – | – | – | – | inhibited in a dose-dependent manner | – | – | – |
| 88.8 | 75.9 | 351 | 61.6 | 64.1 | 238 | α-tocopheryl Bisphosphonic Acid [α-toc-bpp(OH)] | – | – | – | – | – | increased | reduced cell viability | – |
| – | – | – | – | – | – | γ-tocopheryl Diphosphonic Acid [γ-toc-bpp(OH)] | 172 | 66.2 | – | 92 | – | increased | reduced cell viability | EC50 ([2]; Exp.2, * denotes EC50 value, read-out: EC50 value (starred) MB231-TXSA): 182 µM; EC50 ([3]; Exp.1): 303 µM; IC50 ([3]; Exp.2): 65.1 µM; antiproliferative activity compared with γ-tocopherol ([4]; upon esterification of γ-tocopherol): increased; apoptotic nuclei (condensed chromatin, fractured nuclei) by DAPI staining [9]: increased numbers of apoptotic nuclei; pro-apoptotic activity (Caspase-3 activity) [10]: did not show significant pro-apoptotic activity |

| Compound | IC50 ([2]; Exp.3) [µM] | IC50 ([2]; Exp.4) [µM] | EC50 ([3]; Exp.3) [µM] | IC50 ([1]; Exp.3, unstarred values) [µM] | IC50 ([3]; Exp.4) [µM] | IC50 ([1]; Exp.4, unstarred values) [µM] | IC50 ([1]; Exp.1, unstarred values) [µM] | IC50 ([1]; Exp.2) [µM] | EC50 ([1]; Exp.4) [µM] | IC50 ([2]; Exp.1) [µM] | cell viability on breast and prostate cancer metastatic cell lines [5] | antiproliferative activity compared with bpp(OEt) [4] | effect on cell viability [4] | further results |
| --- | --- | --- | --- | --- | --- | --- | --- | --- | --- | --- | --- | --- | --- | --- |
| CCOP(=O)(OCC)C(CCC(=O)O)P(=O)(OCC)OCC [bpp(OEt), Tetra Ethyl 4,4-bis(phosphono)-butanoic Acid, reference compound] | 136 | 179 | 365 | – | – | – | 106 | 242 | 710 | 441 | without effect | – | – | EC50 ([1]; Exp.3): 74.2 µM; IC50 ([2]; Exp.2, unstarred values): 129 µM; IC50 ([3]; Exp.1): 107 µM; EC50 ([3]; Exp.2): 143 µM; EC50 ([3]; Exp.4): 1980 µM; antiproliferative/proapoptotic effect in metastatic breast cancer cell-lines [4]: did not have antiproliferative/proapoptotic effect; osteoclastogenesis of Raw264.7 [6]: inhibited osteoclastogenesis in a dose-dependent manner; anti-resorptive activity of the free bisphosphonate [7]: minimal anti-resorptive activity; binding to bone substrate / bone mineral [8]: high affinity for bone |
